The results in this text go back to US10377753B2, “Substituted 4-azaindoles and their use as GluN2B receptor modulators” (Janssen Pharmaceutica NV, priority 2015, dated 2019).

Where a name gives a salt, the structure may show the parent alone.

Sequence of cloned human NR1/NR2B ion channels (Q13224 27-1484, other chains not shown): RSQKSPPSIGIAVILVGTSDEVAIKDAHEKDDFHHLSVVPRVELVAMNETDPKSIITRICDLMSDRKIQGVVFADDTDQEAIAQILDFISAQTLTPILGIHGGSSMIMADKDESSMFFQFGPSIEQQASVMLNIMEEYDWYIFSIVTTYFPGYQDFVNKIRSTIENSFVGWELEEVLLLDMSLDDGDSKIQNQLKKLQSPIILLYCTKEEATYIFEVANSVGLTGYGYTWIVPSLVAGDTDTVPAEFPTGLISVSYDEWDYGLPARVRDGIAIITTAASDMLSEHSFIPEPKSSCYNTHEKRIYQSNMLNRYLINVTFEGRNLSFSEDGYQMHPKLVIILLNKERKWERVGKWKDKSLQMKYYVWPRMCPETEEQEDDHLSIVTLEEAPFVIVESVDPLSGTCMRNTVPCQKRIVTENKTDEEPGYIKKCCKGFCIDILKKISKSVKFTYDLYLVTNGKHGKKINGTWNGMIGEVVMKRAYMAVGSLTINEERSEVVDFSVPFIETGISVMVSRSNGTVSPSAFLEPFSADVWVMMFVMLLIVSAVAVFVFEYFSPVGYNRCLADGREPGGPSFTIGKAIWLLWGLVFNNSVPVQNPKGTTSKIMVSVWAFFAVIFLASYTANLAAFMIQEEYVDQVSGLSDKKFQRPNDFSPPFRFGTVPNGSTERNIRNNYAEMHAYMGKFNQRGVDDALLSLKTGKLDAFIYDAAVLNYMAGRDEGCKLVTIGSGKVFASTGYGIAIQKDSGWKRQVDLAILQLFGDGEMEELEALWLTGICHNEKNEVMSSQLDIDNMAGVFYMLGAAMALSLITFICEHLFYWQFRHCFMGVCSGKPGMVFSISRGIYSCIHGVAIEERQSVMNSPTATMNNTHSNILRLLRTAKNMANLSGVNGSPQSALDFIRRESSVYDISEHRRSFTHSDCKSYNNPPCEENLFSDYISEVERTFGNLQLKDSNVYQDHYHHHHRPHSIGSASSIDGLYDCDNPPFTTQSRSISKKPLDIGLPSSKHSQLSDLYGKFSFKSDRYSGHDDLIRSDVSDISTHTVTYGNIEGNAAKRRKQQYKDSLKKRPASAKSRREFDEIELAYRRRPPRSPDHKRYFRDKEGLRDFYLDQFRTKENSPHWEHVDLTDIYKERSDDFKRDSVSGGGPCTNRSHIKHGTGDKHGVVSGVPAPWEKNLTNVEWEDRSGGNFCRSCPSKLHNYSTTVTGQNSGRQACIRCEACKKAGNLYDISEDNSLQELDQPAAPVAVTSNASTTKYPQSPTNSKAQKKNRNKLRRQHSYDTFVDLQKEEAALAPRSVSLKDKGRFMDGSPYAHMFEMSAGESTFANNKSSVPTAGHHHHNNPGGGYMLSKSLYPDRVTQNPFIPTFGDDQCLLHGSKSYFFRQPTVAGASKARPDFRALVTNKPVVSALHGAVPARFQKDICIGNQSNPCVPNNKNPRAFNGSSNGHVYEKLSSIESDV

The target in the assay is cloned human NR1/NR2B ion channels (Homo sapiens (Human), UniProt Q05586+Q13224). The assay can be described thus: HNR2BC: effects of test articles on cloned human NR1/NR2B ion channels expressed in mammalian cells (FLIPR calcium flux). Conditions: cloned human NR1/NR2B ion channels, Table 5. It counts as cell-based. In outline:
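Compounds were added to dye-loaded cells for 5 min with fluorescence monitored for agonism, followed by co-agonists (glutamate ~EC80, glycine 10 μM saturating) for 5 min. Cells stably expressed inducible human NR1/NR2B, and the buffer was pH 7.4. The FLIPR Ca2+ flux signal was normalized against control wells.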
(In general: Calcium assays in cells follow changes in intracellular calcium, usually with a dye or a luminescent sensor.)
For the compound `O=C(Cn1ccc2ncc(-c3cc(Cl)cs3)cc21)N1CCC1` [Example 394, 1-(Azetidin-1-yl)-2-[6-(4-chloro-2-thienyl)pyrrolo[3,2-b]pyridin-1-yl]ethanone trifluoroacetate salt], the IC50 was 158 nM.
Under `O=C(Cn1cc(F)c2ncc(-c3cccs3)cc21)N1CC(F)C1` [Example 395, 1-(3-Fluoroazetidin-1-yl)-2-[3-fluoro-6-(2-thienyl)pyrrolo[3,2-b]pyridin-1-yl]ethanone trifluoroacetate salt] stands 50.1 nM.
Under `CN(C)C(=O)Cn1cc(F)c2ncc(-c3cc(Cl)cs3)cc21` [Example 396, 2-[6-(4-Chloro-2-thienyl)-3-fluoro-pyrrolo[3,2-b]pyridin-1-yl]-N,N-dimethyl-acetamide] stands 501 nM.
Under `O=C(Cn1cc(F)c2ncc(-c3cc(Cl)cs3)cc21)N1CCC1` [Example 397, 1-(Azetidin-1-yl)-2-[6-(4-chloro-2-thienyl)-3-fluoro-pyrrolo[3,2-b]pyridin-1-yl]ethanone trifluoroacetate salt] stands 50.1 nM; under `CCc1ccc(-c2cnc3c(F)cn(CC(=O)N4CC(F)C4)c3c2)s1` [Example 398, 2-[6-(5-Ethyl-2-thienyl)-3-fluoro-pyrrolo[3,2-b]pyridin-1-yl]-1-(3-fluoroazetidin-1-yl)ethanone trifluoroacetate salt], 39.8 nM.
For `O=C(Cn1ccc2ncc(-c3cccs3)cc21)N1CCC1` [Example 399, 1-(Azetidin-1-yl)-2-[6-(2-thienyl)pyrrolo[3,2-b]pyridin-1-yl]ethanone], the IC50 was 158 nM.
Under `CN(C)C(=O)Cn1ccc2ncc(-c3cccs3)cc21` [Example 400, N,N-Dimethyl-2-[6-(2-thienyl)pyrrolo[3,2-b]pyridin-1-yl]acetamide] stands 501 nM; under `CCc1ccc(-c2cnc3c(F)cn(CC(=O)N4CCC4)c3c2)s1` [Example 401, 1-(Azetidin-1-yl)-2-[6-(5-ethyl-2-thienyl)-3-fluoro-pyrrolo[3,2-b]pyridin-1-yl]ethanone], 631 nM.
Under `Cc1ccc(-c2cnc3c(F)cn(CC(=O)N4CC(F)C4)c3c2)s1` [Example 402, 1-(3-Fluoroazetidin-1-yl)-2-[3-fluoro-6-(5-methyl-2-thienyl)pyrrolo[3,2-b]pyridin-1-yl]ethanone trifluoroacetate salt] stands 251 nM; under `O=C(Cn1ccc2ncc(-c3sccc3Cl)cc21)N1CCC1` [Example 403, 1-(Azetidin-1-yl)-2-[6-(3-chloro-2-thienyl)pyrrolo[3,2-b]pyridin-1-yl]ethanone], 100 nM; under `Cc1ncc(-c2cnc3ccn(CC(=O)N4CCC4)c3c2)s1` [Example 404, 1-(Azetidin-1-yl)-2-[6-(2-methylthiazol-5-yl)pyrrolo[3,2-b]pyridin-1-yl]ethanone], 31.6 nM.
With `O=C(Cn1ccc2ncc(-c3cncs3)cc21)N1CCC1` [Example 405, 1-(Azetidin-1-yl)-2-(6-thiazol-5-ylpyrrolo[3,2-b]pyridin-1-yl)ethanone], the IC50 was 10000 nM.
Under `Cc1csc(-c2cnc3c(Cl)cn(CC(=O)N4CCC4)c3c2)c1` [Example 407, 1-(Azetidin-1-yl)-2-[3-chloro-6-(4-methyl-2-thienyl)pyrrolo[3,2-b]pyridin-1-yl]ethanone] stands 6310 nM; under `CCc1ccc(-c2cnc3c(Cl)cn(CC(=O)N4CCC4)c3c2)s1` [Example 408, 1-(Azetidin-1-yl)-2-[3-chloro-6-(5-ethyl-2-thienyl)pyrrolo[3,2-b]pyridin-1-yl]ethanone], 39.8 nM.
Under `O=C(Cn1cc(Cl)c2ncc(-c3cccs3)cc21)N1CCC1` [Example 409, 1-(Azetidin-1-yl)-2-[3-chloro-6-(2-thienyl)pyrrolo[3,2-b]pyridin-1-yl]ethanone] stands 200 nM.
Under `Cc1ccc(-c2cnc3c(Cl)cn(CC(=O)N4CCC4)c3c2)s1` [Example 410, 1-(Azetidin-1-yl)-2-[3-chloro-6-(5-methyl-2-thienyl)pyrrolo[3,2-b]pyridin-1-yl]ethanone] stands 316 nM; under `CN(CC(F)(F)F)C(=O)Cn1ccc2ncc(-c3ccc(F)cc3)cc21` [Example 411, 2-[6-(4-Fluorophenyl)pyrrolo[3,2-b]pyridin-1-yl]-N-methyl-N-(2,2,2-trifluoroethyl)acetamide], 25.1 nM.
As to `Cc1ccc(-c2cnc3c(Cl)cn(CC(=O)N4CC(F)C4)c3c2)s1` [Example 412, 2-[3-Chloro-6-(5-methyl-2-thienyl)pyrrolo[3,2-b]pyridin-1-yl]-1-(3-fluoroazetidin-1-yl)ethanone], the IC50 is 7940 nM.
Under `O=C(Cn1cc(Cl)c2ncc(-c3ccc(Cl)s3)cc21)N1CC(F)C1` [Example 413, 2-[3-Chloro-6-(5-chloro-2-thienyl)pyrrolo[3,2-b]pyridin-1-yl]-1-(3-fluoroazetidin-1-yl)ethanone] stands 50.1 nM.
As to `CN(C)C(=O)Cn1cc(Cl)c2ncc(-c3cc(Cl)cs3)cc21` [Example 414, 2-[3-Chloro-6-(4-chloro-2-thienyl)pyrrolo[3,2-b]pyridin-1-yl]-N,N-dimethyl-acetamide], the IC50 is 39.8 nM.
As for `Cc1cc(-c2cnc3ccn(CC(=O)N(C)CC(F)(F)F)c3c2)ccc1F` [Example 415, 2-[6-(4-Fluoro-3-methyl-phenyl)pyrrolo[3,2-b]pyridin-1-yl]-N-methyl-N-(2,2,2-trifluoroethyl)acetamide], the IC50 is 63.1 nM.
Take `Cc1csc(-c2cnc3c(Cl)cn(CC(=O)N4CC(F)C4)c3c2)c1` [Example 416, 2-[3-Chloro-6-(4-methyl-2-thienyl)pyrrolo[3,2-b]pyridin-1-yl]-1-(3-fluoroazetidin-1-yl)ethanone]: the IC50 was 2510 nM.
Under `O=C(Cn1cc(Cl)c2ncc(-c3cccs3)cc21)N1CC(F)C1` [Example 417, 2-[3-Chloro-6-(2-thienyl)pyrrolo[3,2-b]pyridin-1-yl]-1-(3-fluoroazetidin-1-yl)ethanone] stands 63.1 nM; under `O=C(Cn1cc(Cl)c2ncc(-c3cc(Cl)cs3)cc21)N1CC(F)C1` [Example 418, 2-[3-Chloro-6-(4-chloro-2-thienyl)pyrrolo[3,2-b]pyridin-1-yl]-1-(3-fluoroazetidin-1-yl)ethanone], 501 nM.
Under `CCN(C)C(=O)Cn1ccc2ncc(-c3ccc(F)cc3)cc21` [Example 419, N-Ethyl-2-[6-(4-fluorophenyl)pyrrolo[3,2-b]pyridin-1-yl]-N-methyl-acetamide] stands 63.1 nM; under `CN(C)C(=O)Cn1cc(Cl)c2ncc(-c3cccs3)cc21` [Example 420, 2-[3-Chloro-6-(2-thienyl)pyrrolo[3,2-b]pyridin-1-yl]-N,N-dimethyl-acetamide], 631 nM.
Under `CCc1ccc(-c2cnc3c(Cl)cn(CC(=O)N(C)C)c3c2)s1` [Example 421, 2-[3-Chloro-6-(5-ethyl-2-thienyl)pyrrolo[3,2-b]pyridin-1-yl]-N,N-dimethyl-acetamide] stands 631 nM; under `O=C(Cn1cc(Cl)c2ncc(-c3cc(Cl)cs3)cc21)N1CCC1` [Example 422, 1-(Azetidin-1-yl)-2-[3-chloro-6-(4-chloro-2-thienyl)pyrrolo[3,2-b]pyridin-1-yl]ethanone], 200 nM.

For orientation: IC50 means the concentration needed to halve the response being measured.
